One assay concerns the target T1, recombinant human CLK3 (Homo sapiens, UniProt P49761).
T1 construct: purchased Thermo Fisher Scientific PV3826
The assay is described as follows: CLK3 kinase assay (LANCE Ultra). The class given is biochemical. The following applies: CLK3 0.5 nM, ATP 300 μM, 3 hours at 30° C. A digest of the protocol:
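Recombinant human CLK3 (0.5 nM) with ULight-CREBtide (50 nM) and 300 μM ATP, 3 h at 30 °C in kinase buffer; EDTA stop, then Eu-anti-phospho-CREB antibody (2 nM, 1 h RT), TR-FRET read at 665/620 nm. Inhibition normalized to DMSO and no-ATP wells; IC50 from 4-parameter fit, ten 1:3 concentrations in duplicate.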
For orientation: Time-resolved FRET reads energy transfer from a long-lived donor to a nearby acceptor.

A further assay concerns MDA-MB-231 cells. Nature of the assay: MDA-MB-231 proliferation assay. In kind it is cell-based. The following applies: YO-PRO-1 Iodide readout. A digest of the protocol: (§1)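 Cells seeded at 750 per well, treated next day for 72 h at 37 °C with 0.5% final DMSO. Cell number read by YO-PRO-1 fluorescence after lysis, normalized to DMSO (100%) and time-zero cells (0%). GI50 from 4-parameter logistic fit, maximum constrained to 100%.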

The test system of the next assay is CAL-51 cells. Nature of the assay: CAL-51 proliferation assay. The class given is cell-based. Conditions: YO-PRO-1 Iodide readout. A digest of the protocol:
as §1

Structures are written as SMILES.

T1 sequence (P49761 whole entry): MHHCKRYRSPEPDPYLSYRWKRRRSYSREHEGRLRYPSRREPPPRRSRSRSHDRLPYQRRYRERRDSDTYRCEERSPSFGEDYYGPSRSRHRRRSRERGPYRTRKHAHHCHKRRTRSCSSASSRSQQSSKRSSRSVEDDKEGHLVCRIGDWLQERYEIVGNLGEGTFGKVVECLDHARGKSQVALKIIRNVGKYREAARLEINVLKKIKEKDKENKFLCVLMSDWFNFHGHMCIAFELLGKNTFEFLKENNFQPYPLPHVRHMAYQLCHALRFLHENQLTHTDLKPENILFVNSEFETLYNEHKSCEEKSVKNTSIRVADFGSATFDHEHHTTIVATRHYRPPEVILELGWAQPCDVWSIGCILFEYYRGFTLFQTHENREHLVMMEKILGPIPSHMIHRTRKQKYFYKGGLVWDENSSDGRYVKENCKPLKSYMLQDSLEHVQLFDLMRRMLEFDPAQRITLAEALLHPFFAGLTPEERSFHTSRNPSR

One may read the IC50 as the concentration needed to halve the response being measured. As a reminder, the GI50 is the concentration at which growth is held to half of that of the control. Regarding `CC1(C)Cc2c(ccc(O[C@H]3CC[C@H](N)CC3)c2S(=O)(=O)NCC#N)-c2ncnc(N)c21` [Example 116, 4-amino-8-(trans-4-aminocyclohexoxy)-N-(cyanomethyl)-5,5-dimethyl-6H-benzo[h]quinazoline-7-sulfonamide], at recombinant human CLK3, the half-maximal inhibitory concentration (IC50) lay in the range of 30 to 100 nM. Also, the GI50 was in the range of 100 to 2000 nM in the assay with MDA-MB-231 cells (Homo sapiens, MDA-MB-231, 72 h) and 100 to 2000 nM with CAL-51 cells (Homo sapiens, CAL-51, 72 h).

Regarding `CC1(C)Cc2c(ccc(O[C@H]3CC[C@H](N)CC3)c2N(CCO)CCO)-c2ncnc(N)c21` [Example 11, 2-[[4-amino-8-(trans-4-aminocyclohexoxy)-5,5-dimethyl-6H-benzo[h]quinazolin-7-yl]-(2-hydroxyethyl)amino]ethanol], at recombinant human CLK3, the IC50 is below 30 nM. In addition, the GI50 was above 2000 nM with MDA-MB-231 cells (Homo sapiens, MDA-MB-231, 72 h) and 100 to 2000 nM with CAL-51 cells (Homo sapiens, CAL-51, 72 h).

As for `COC1CCN(c2c(O[C@H]3CC[C@H](N)CC3)ccc3c2CC(C)(C)c2c(N)ncnc2-3)C1` (single isomer, unassigned) [Example 63, 8-(trans-4-aminocyclohexoxy)-7-(3-methoxypyrrolidin-1-yl)-5,5-dimethyl-6H-benzo[h]quinazolin-4-amine], at recombinant human CLK3, the IC50 fell in the range of 30 to 100 nM. The concentration for 50% growth inhibition (GI50) in the assay on MDA-MB-231 cells (Homo sapiens, MDA-MB-231, 72 h) fell in the range of 100 to 2000 nM; with CAL-51 cells (Homo sapiens, CAL-51, 72 h), 100 to 2000 nM.

With `COCCNc1c(O[C@H]2CC[C@H](N)CC2)ccc2c1CC(C)(C)c1c(N)ncnc1-2` [Example 18, 8-(trans-4-aminocyclohexoxy)-N7-(2-methoxyethyl)-5,5-dimethyl-6H-benzo[h]quinazoline-4,7-diamine], the half-maximal inhibitory concentration (IC50) at recombinant human CLK3 was in the range of 101 to 1000 nM. Also, the GI50 was 100 to 2000 nM in the assay on MDA-MB-231 cells (Homo sapiens, MDA-MB-231, 72 h) and 100 to 2000 nM in the assay with CAL-51 cells (Homo sapiens, CAL-51, 72 h).

In the case of `COc1ccn(-c2c(O[C@H]3CC[C@H](N)CC3)ccc3c2CC(C)(C)c2c(N)ncnc2-3)c1` [Example 57, 8-(trans-4-aminocyclohexoxy)-7-(3-methoxypyrrol-1-yl)-5,5-dimethyl-6H-benzo[h]quinazolin-4-amine], the IC50 at recombinant human CLK3 was in the range of 30 to 100 nM. The GI50 with MDA-MB-231 cells (Homo sapiens, MDA-MB-231, 72 h) was 100 to 2000 nM; in the assay with CAL-51 cells (Homo sapiens, CAL-51, 72 h), below 100 nM.

As to `CN(CCO)c1c(O[C@H]2CC[C@@H](N)CC2)ccc2c1CC1(CCCC1)c1c(N)ncnc1-2` [Example 83, 2-[[4-amino-8-(cis-4-aminocyclohexoxy)spiro[6H-benzo[h]quinazoline-5,1′-cyclopentane]-7-yl]-methyl-amino]ethanol], the IC50 on recombinant human CLK3 was below 30 nM. Besides, the concentration for 50% growth inhibition (GI50) is below 100 nM in the assay with MDA-MB-231 cells (Homo sapiens, MDA-MB-231, 72 h) and below 100 nM in the assay on CAL-51 cells (Homo sapiens, CAL-51, 72 h).

In the case of `CN(C(=O)CO)c1c(O[C@H]2CC[C@H](N)CC2)ccc2c1CC(C)(C)c1c(N)ncnc1-2` [Example 41, N-[4-amino-8-(trans-4-aminocyclohexoxy)-5,5-dimethyl-6H-benzo[h]quinazolin-7-yl]-2-hydroxy-N-methyl-acetamide], the IC50 on recombinant human CLK3 lay within 101 to 1000 nM. In addition, the GI50 in the assay with MDA-MB-231 cells (Homo sapiens, MDA-MB-231, 72 h) was above 2000 nM; in the assay on CAL-51 cells (Homo sapiens, CAL-51, 72 h), above 2000 nM.

For `CC1(C)Cc2c(ccc(O[C@H]3CC[C@H](N)CC3)c2OCCC#N)-c2ncnc(N)c21` [Example 71, 3-[[4-amino-8-(trans-4-aminocyclohexoxy)-5,5-dimethyl-6H-benzo[h]quinazolin-7-yl]oxy]propanenitrile], the concentration for half-maximal inhibition (IC50) on recombinant human CLK3 was below 30 nM. Moreover, the GI50 is 100 to 2000 nM in the assay on MDA-MB-231 cells (Homo sapiens, MDA-MB-231, 72 h) and below 100 nM in the assay with CAL-51 cells (Homo sapiens, CAL-51, 72 h).

For `CC1(C)Cc2c(ccc(O[C@H]3CC[C@H](N)CC3)c2N2CCC(C#N)C2)-c2ncnc(N)c21` (single isomer, unassigned) [Example 50, 1-[4-amino-8-(trans-4-aminocyclohexoxy)-5,5-dimethyl-6H-benzo[h]quinazolin-7-yl]pyrrolidine-3-carbonitrile], on recombinant human CLK3, the IC50 was below 30 nM. For the same molecule, the 50% growth inhibitory concentration (GI50) with MDA-MB-231 cells (72 hours) and in the assay with CAL-51 cells (72 hours) was below 100 nM each time.

For `CC1(C)Cc2c(ccc(O[C@H]3CC[C@H](N)CC3)c2N2CC=CC2=O)-c2ncnc(N)c21` [Example 56, 1-[4-amino-8-(trans-4-aminocyclohexoxy)-5,5-dimethyl-6H-benzo[h]quinazolin-7-yl]-2H-pyrrol-5-one], the half-maximal inhibitory concentration (IC50) at recombinant human CLK3 lay in the range of 101 to 1000 nM. In addition, the 50% growth inhibitory concentration (GI50) in the assay with MDA-MB-231 cells (Homo sapiens, MDA-MB-231, 72 h) is above 2000 nM; in the assay on CAL-51 cells (Homo sapiens, CAL-51, 72 h), above 2000 nM.
